# Key:
# [1] = system: APESV; assay: greenhouse pre-emergence herbicidal test; type: in vivo, Apera spica-venti; conditions: pre-emergence method, scale from 0 to 100
# Method in brief: (§1)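 Greenhouse plants receive the aqueous active ingredient straight after sowing, before emergence. Response is scored from 0 (no damage) to 100 (no emergence or complete kill of aerial parts) over a 2-4 week period.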
# [2] = system: ECHCG; assay: greenhouse post-emergence herbicidal test; type: in vivo, Echinocloa crus-galli; conditions: post-emergence method, scale from 0 to 100
# Method in brief: (§2)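 Greenhouse plants, grown to 3–15 cm, were treated post-emergence with emulsified or suspended compound and assessed over 2–4 weeks on a 0–100 damage scale.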
# [3] = system: LOLMU; assay: greenhouse post-emergence herbicidal test; type: in vivo, Lolium multiflorum; conditions: post-emergence method, scale from 0 to 100
# Description: (§3) The seeds of the test plants were sown separately for each species. For the post-emergence treatment, the test plants were first grown to a height of 3 to 15 cm, depending on the plant habit, and only then treated with the active ingredients which had been suspended or emulsified in water. For this purpose, the test plants were either sown directly and grown in the same containers, or they were first grown separately as seedlings and transplanted into the test containers a few days prior to treatment. Depending on the species, the plants were kept at 10-25° C. or 20-35° C., respectively. The test period extended over 2 to 4 weeks. During this time, the plants were tended, and their response to the individual treatments was evaluated. Evaluation was carried out using a scale from 0 to 100. 100 means no emergence of the plants, or complete destruction of at least the aerial moieties, and 0 means no damage, or normal course of growth. […] The plants used in the greenhouse experiments were of the following species: [table]
# [4] = system: POLCO; assay: greenhouse post-emergence herbicidal test; type: in vivo, Polygonum convolvulus; conditions: post-emergence method, scale from 0 to 100
# Method in brief: as §2
# [5] = system: SETVI; assay: greenhouse pre-emergence herbicidal test; type: in vivo, Setaria viridis; conditions: pre-emergence method, application rate 1000 g/ha, scale from 0 to 100
# Description: (§4) The seeds of the test plants were sown separately for each species. For the pre-emergence treatment, the active ingredients, which had been suspended or emulsified in water, were applied directly after sowing by means of finely distributing nozzles. The containers were irrigated gently to promote germination and growth and subsequently covered with transparent plastic hoods until the plants had rooted. This cover caused uniform germination of the test plants, unless this had been impaired by the active ingredients. Depending on the species, the plants were kept at 10-25° C. or 20-35° C., respectively. The test period extended over 2 to 4 weeks. During this time, the plants were tended, and their response to the individual treatments was evaluated. Evaluation was carried out using a scale from 0 to 100. 100 means no emergence of the plants, or complete destruction of at least the aerial moieties, and 0 means no damage, or normal course of growth. […] The plants used in the greenhouse experiments were of the following species: [table]
# [6] = system: AMARE; assay: greenhouse pre-emergence herbicidal test; type: in vivo, Amaranthus retroflexus; conditions: pre-emergence method, scale from 0 to 100
# Description: as §4
# [7] = system: ECHCG; assay: greenhouse pre-emergence herbicidal test; type: in vivo, Echinocloa crus-galli; conditions: pre-emergence method, application rate 500 g/ha, scale from 0 to 100
# Method in brief: as §1
# [8] = system: ALOMY; assay: greenhouse post-emergence herbicidal test; type: in vivo, Alopercurus myosuroides; conditions: post-emergence method, scale from 0 to 100
# Method in brief: as §2
# [9] = system: AMARE; assay: greenhouse post-emergence herbicidal test; type: in vivo, Amaranthus retroflexus; conditions: post-emergence method, scale from 0 to 100
# Method in brief: as §2
# [10] = system: AVEFA; assay: greenhouse post-emergence herbicidal test; type: in vivo, Avena fatua; conditions: post-emergence method, scale from 0 to 100
# Method in brief: as §2
# [11] = system: AVEFA; assay: greenhouse pre-emergence herbicidal test; type: in vivo, Avena fatua; conditions: pre-emergence method, application rate 500 g/ha, scale from 0 to 100
# Description: as §4
# [12] = system: APESV; assay: greenhouse post-emergence herbicidal test; type: in vivo, Apera spica-venti; conditions: post-emergence method, application rate 500 g/ha, scale from 0 to 100
# Description: as §3
# [13] = system: POLCO; assay: greenhouse pre-emergence herbicidal test; type: in vivo, Polygonum convolvulus; conditions: pre-emergence method, application rate 500 g/ha, scale from 0 to 100
# Description: as §4
# [14] = system: ABUTH; assay: greenhouse post-emergence herbicidal test; type: in vivo, Abutilon theophrasti; conditions: post-emergence method, application rate 1000 g/ha, scale from 0 to 100
# Method in brief: as §2
# [15] = system: SETVI; assay: greenhouse post-emergence herbicidal test; type: in vivo, Setaria viridis; conditions: post-emergence method, application rate 500 g/ha, scale from 0 to 100
# Description: as §3
structure (smiles),measurement,setting,value
CCc1ncc(-c2ccccc2Cl)c(C(=O)O)n1 [example 6],herbicidal activity against APESV,[1]; application rate 500 g/ha,very good (a very good herbicidal activity is given at values of at least 85)
same,herbicidal activity against ECHCG,[2]; application rate 500 g/ha,very good (a very good herbicidal activity is given at values of at least 85)
same,herbicidal activity against LOLMU,[3]; application rate 500 g/ha,good (A good herbicidal activity is given at values of at least 70)
same,herbicidal activity against POLCO,[4]; application rate 500 g/ha,very good (a very good herbicidal activity is given at values of at least 85)
COc1ccccc1-c1cnc(OC(C)C)nc1C(=O)O [example 74],herbicidal activity against SETVI,[5],good (A good herbicidal activity is given at values of at least 70)
COC(=O)c1nc(SC)ncc1-c1cc(C)ccc1Cl [example 117],herbicidal activity against AMARE,[6]; application rate 500 g/ha,good (A good herbicidal activity is given at values of at least 70)
same,herbicidal activity against ECHCG,[7],good (A good herbicidal activity is given at values of at least 70)
Cc1ccccc1-c1cnc(C2CC2)nc1C(=O)O [example 161],herbicidal activity against APESV,[1]; application rate 1000 g/ha,very good (a very good herbicidal activity is given at values of at least 85)
same,herbicidal activity against ALOMY,[8]; application rate 1000 g/ha,good (A good herbicidal activity is given at values of at least 70)
same,herbicidal activity against AMARE,[9]; application rate 1000 g/ha,good (A good herbicidal activity is given at values of at least 70)
same,herbicidal activity against LOLMU,[3]; application rate 1000 g/ha,good (A good herbicidal activity is given at values of at least 70)
same,herbicidal activity against POLCO,[4]; application rate 1000 g/ha,good (A good herbicidal activity is given at values of at least 70)
COC(=O)c1nc(C2CC2)ncc1-c1c(Cl)cc(F)cc1Cl [example 208],herbicidal activity against AMARE,[6]; application rate 1000 g/ha,good (A good herbicidal activity is given at values of at least 70)
same,herbicidal activity against APESV,[1]; application rate 1000 g/ha,very good (a very good herbicidal activity is given at values of at least 85)
same,herbicidal activity against ALOMY,[8]; application rate 1000 g/ha,very good (a very good herbicidal activity is given at values of at least 85)
same,herbicidal activity against AVEFA,[10]; application rate 1000 g/ha,very good (a very good herbicidal activity is given at values of at least 85)
C#CCOC(=O)c1nc(C2CC2)ncc1-c1ccccc1Cl [example 256],herbicidal activity against APESV,[1]; application rate 500 g/ha,very good (a very good herbicidal activity is given at values of at least 85)
same,herbicidal activity against AVEFA,[11],very good (a very good herbicidal activity is given at values of at least 85)
same,herbicidal activity against ECHCG,[7],very good (a very good herbicidal activity is given at values of at least 85)
same,herbicidal activity against APESV,[12],very good (a very good herbicidal activity is given at values of at least 85)
same,herbicidal activity against AVEFA,[10]; application rate 500 g/ha,very good (a very good herbicidal activity is given at values of at least 85)
same,herbicidal activity against ECHCG,[2]; application rate 500 g/ha,very good (a very good herbicidal activity is given at values of at least 85)
O=C(OCC(F)F)c1nc(C2CC2)ncc1-c1ccccc1Cl [example 257],herbicidal activity against APESV,[1]; application rate 500 g/ha,very good (a very good herbicidal activity is given at values of at least 85)
same,herbicidal activity against ECHCG,[7],very good (a very good herbicidal activity is given at values of at least 85)
same,herbicidal activity against POLCO,[13],very good (a very good herbicidal activity is given at values of at least 85)
same,herbicidal activity against ALOMY,[8]; application rate 500 g/ha,very good (a very good herbicidal activity is given at values of at least 85)
same,herbicidal activity against AVEFA,[10]; application rate 500 g/ha,very good (a very good herbicidal activity is given at values of at least 85)
same,herbicidal activity against ECHCG,[2]; application rate 500 g/ha,good (A good herbicidal activity is given at values of at least 70)
COC(=O)c1nc(C2CCCO2)ncc1-c1ccccc1C (centres unmarked) [example 276],herbicidal activity against AMARE,[6]; application rate 1000 g/ha,very good (a very good herbicidal activity is given at values of at least 85)
same,herbicidal activity against ABUTH,[14],very good (a very good herbicidal activity is given at values of at least 85)
same,herbicidal activity against AMARE,[9]; application rate 1000 g/ha,very good (a very good herbicidal activity is given at values of at least 85)
CN(C)C(=O)c1nc(C2CC2)ncc1-c1ccccc1Cl [example 285],herbicidal activity against AMARE,[6]; application rate 500 g/ha,good (A good herbicidal activity is given at values of at least 70)
same,herbicidal activity against APESV,[1]; application rate 500 g/ha,good (A good herbicidal activity is given at values of at least 70)
CS(=O)(=O)NC(=O)c1nc(C2CC2)ncc1-c1ccccc1Cl [example 286],herbicidal activity against APESV,[1]; application rate 500 g/ha,very good (a very good herbicidal activity is given at values of at least 85)
same,herbicidal activity against ECHCG,[7],very good (a very good herbicidal activity is given at values of at least 85)
same,herbicidal activity against AMARE,[9]; application rate 500 g/ha,very good (a very good herbicidal activity is given at values of at least 85)
same,herbicidal activity against LOLMU,[3]; application rate 500 g/ha,very good (a very good herbicidal activity is given at values of at least 85)
CN(C)S(=O)(=O)NC(=O)c1nc(C2CC2)ncc1-c1ccccc1Cl [example 287],herbicidal activity against AMARE,[6]; application rate 500 g/ha,very good (a very good herbicidal activity is given at values of at least 85)
same,herbicidal activity against APESV,[1]; application rate 500 g/ha,very good (a very good herbicidal activity is given at values of at least 85)
same,herbicidal activity against ECHCG,[2]; application rate 500 g/ha,very good (a very good herbicidal activity is given at values of at least 85)
same,herbicidal activity against LOLMU,[3]; application rate 500 g/ha,very good (a very good herbicidal activity is given at values of at least 85)
same,herbicidal activity against POLCO,[4]; application rate 500 g/ha,very good (a very good herbicidal activity is given at values of at least 85)
NC(=O)c1nc(C2CC2)ncc1-c1ccccc1Cl [example 288],herbicidal activity against AMARE,[6]; application rate 500 g/ha,very good (a very good herbicidal activity is given at values of at least 85)
same,herbicidal activity against APESV,[1]; application rate 500 g/ha,very good (a very good herbicidal activity is given at values of at least 85)
same,herbicidal activity against POLCO,[4]; application rate 500 g/ha,very good (a very good herbicidal activity is given at values of at least 85)
same,herbicidal activity against SETVI,[15],very good (a very good herbicidal activity is given at values of at least 85)
COC(=O)CCSC(=O)c1nc(C2CC2)ncc1-c1ccccc1Cl [example 307],herbicidal activity against APESV,[1]; application rate 250 g/ha,very good (a very good herbicidal activity is given at values of at least 85)
same,herbicidal activity against AVEFA,[10]; application rate 250 g/ha,very good (a very good herbicidal activity is given at values of at least 85)
same,herbicidal activity against ECHCG,[2]; application rate 250 g/ha,good (A good herbicidal activity is given at values of at least 70)
same,herbicidal activity against LOLMU,[3]; application rate 250 g/ha,very good (a very good herbicidal activity is given at values of at least 85)
